# Experimental data reported in PubChem BioAssay AID1918930 (Molecular Pharmacology Branch, DTP, NCI, 2023).
# Test system: 233499-124-R-J3-PDC complex spheroid viability, % test/control
# Test: Anticancer human tumor 233499-124-R-J3-PDC patient-derived colon adenocarcinoma cell line growth inhibition
# Settings: for IC50: curve of first compound; for viability, T/C: stronger effect = lower value
# How it was run: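 Complex spheroids of tumor cells with HUVEC and human MSCs, exposed to iadademstat combined with other agents. Each agent tested in half-log steps from near clinical Cmax (else 10 microM top), DMSO ≤0.25%.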
# [1] = second compound 0.1 µM, first compound 0.000316 µM
# [2] = second compound 0.1 µM, first compound 0.001 µM
# [3] = second compound 0.1 µM, first compound 0.00316 µM
# [4] = second compound 0.1 µM, first compound 0.01 µM
# [5] = second compound 0.1 µM, first compound 0.0316 µM
# [6] = second compound 0.1 µM, first compound 0.1 µM
# [7] = second compound 0.316 µM, first compound 0.000316 µM
# [8] = second compound 0.316 µM, first compound 0.001 µM
# [9] = second compound 0.316 µM, first compound 0.00316 µM
# [10] = second compound 0.316 µM, first compound 0.01 µM
# [11] = second compound 0.316 µM, first compound 0.0316 µM
# [12] = second compound 0.316 µM, first compound 0.1 µM
# [13] = second compound 1 µM, first compound 0.000316 µM
# [14] = second compound 1 µM, first compound 0.001 µM
# [15] = second compound 1 µM, first compound 0.00316 µM
# [16] = second compound 1 µM, first compound 0.01 µM
# [17] = second compound 1 µM, first compound 0.0316 µM
# [18] = second compound 1 µM, first compound 0.1 µM
# [19] = second compound 3.16 µM, first compound 0.000316 µM
# [20] = second compound 3.16 µM, first compound 0.001 µM
# [21] = second compound 3.16 µM, first compound 0.00316 µM
# [22] = second compound 3.16 µM, first compound 0.01 µM
# [23] = second compound 3.16 µM, first compound 0.0316 µM
# [24] = second compound 3.16 µM, first compound 0.1 µM
# [25] = second compound 10 µM, first compound 0.000316 µM
# [26] = second compound 10 µM, first compound 0.001 µM
# [27] = second compound 10 µM, first compound 0.00316 µM
# [28] = second compound 10 µM, first compound 0.01 µM
# [29] = second compound 10 µM, first compound 0.0316 µM
# [30] = second compound 10 µM, first compound 0.1 µM
# [31] = second compound 0.1 µM, first compound 0.00949 µM
# [32] = second compound 0.1 µM, first compound 0.03 µM
# [33] = second compound 0.1 µM, first compound 0.0949 µM
# [34] = second compound 0.1 µM, first compound 0.3 µM
# [35] = second compound 0.1 µM, first compound 0.949 µM
# [36] = second compound 0.1 µM, first compound 3 µM
# [37] = second compound 0.316 µM, first compound 0.00949 µM
# [38] = second compound 0.316 µM, first compound 0.03 µM
# [39] = second compound 0.316 µM, first compound 0.0949 µM
# [40] = second compound 0.316 µM, first compound 0.3 µM
# [41] = second compound 0.316 µM, first compound 0.949 µM
# [42] = second compound 0.316 µM, first compound 3 µM
# [43] = second compound 1 µM, first compound 0.00949 µM
# [44] = second compound 1 µM, first compound 0.03 µM
# [45] = second compound 1 µM, first compound 0.0949 µM
# [46] = second compound 1 µM, first compound 0.3 µM
# [47] = second compound 1 µM, first compound 0.949 µM
# [48] = second compound 1 µM, first compound 3 µM
# [49] = second compound 3.16 µM, first compound 0.00949 µM
# [50] = second compound 3.16 µM, first compound 0.03 µM
# [51] = second compound 3.16 µM, first compound 0.0949 µM
# [52] = second compound 3.16 µM, first compound 0.3 µM
# [53] = second compound 3.16 µM, first compound 0.949 µM
# [54] = second compound 3.16 µM, first compound 3 µM
# [55] = second compound 10 µM, first compound 0.00949 µM
# [56] = second compound 10 µM, first compound 0.03 µM
# [57] = second compound 10 µM, first compound 0.0949 µM
# [58] = second compound 10 µM, first compound 0.3 µM
# [59] = second compound 10 µM, first compound 0.949 µM
# [60] = second compound 10 µM, first compound 3 µM
# 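Further: spheroids exposed to agents for one week before readout.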
compound,measurement,setting,value
CC(C)CC(NC(=O)C(Cc1ccccc1)NC(=O)c1cnccn1)B(O)O (stereo not given) + NC1CCC(NC2CC2c2ccccc2)CC1,IC50,second compound 0.1 µM,2.62 nM
same,IC50,second compound 0.316 µM,2.93 nM
same,IC50,second compound 1 µM,2.18 nM
same,IC50,second compound 3.16 µM,1.95 nM
same,IC50,second compound 10 µM,2.83 nM
same,"viability, T/C",[1],105%
same,"viability, T/C",[2],114%
same,"viability, T/C",[3],38.4%
same,"viability, T/C",[4],0.08%
same,"viability, T/C",[5],1.9%
same,"viability, T/C",[6],2.95%
same,"viability, T/C",[7],110%
same,"viability, T/C",[8],107%
same,"viability, T/C",[9],46%
same,"viability, T/C",[10],0.06%
same,"viability, T/C",[11],0.03%
same,"viability, T/C",[12],1.83%
same,"viability, T/C",[13],109%
same,"viability, T/C",[14],100%
same,"viability, T/C",[15],25.9%
same,"viability, T/C",[16],0.26%
same,"viability, T/C",[17],3.69%
same,"viability, T/C",[18],3.26%
same,"viability, T/C",[19],90.9%
same,"viability, T/C",[20],94.5%
same,"viability, T/C",[21],19.2%
same,"viability, T/C",[22],0.04%
same,"viability, T/C",[23],2.68%
same,"viability, T/C",[24],0.1%
same,"viability, T/C",[25],87.7%
same,"viability, T/C",[26],80.8%
same,"viability, T/C",[27],46.9%
same,"viability, T/C",[28],0.13%
same,"viability, T/C",[29],0.6%
same,"viability, T/C",[30],0.18%
CC(C)CC(NC(=O)CNC(=O)c1cc(Cl)ccc1Cl)B1OC(=O)CC(CC(=O)O)(C(=O)O)O1 (stereo not given) + NC1CCC(NC2CC2c2ccccc2)CC1,IC50,second compound 0.1 µM,5.11 nM
same,IC50,second compound 0.316 µM,5.49 nM
same,IC50,second compound 1 µM,4.87 nM
same,IC50,second compound 3.16 µM,4.14 nM
same,IC50,second compound 10 µM,3.33 nM
same,"viability, T/C",[1],104%
same,"viability, T/C",[2],90.2%
same,"viability, T/C",[3],81.8%
same,"viability, T/C",[4],4.56%
same,"viability, T/C",[5],6.96%
same,"viability, T/C",[6],5.21%
same,"viability, T/C",[7],109%
same,"viability, T/C",[8],96.2%
same,"viability, T/C",[9],88.8%
same,"viability, T/C",[10],7.64%
same,"viability, T/C",[11],8.46%
same,"viability, T/C",[12],0.08%
same,"viability, T/C",[13],88.7%
same,"viability, T/C",[14],78.1%
same,"viability, T/C",[15],75.8%
same,"viability, T/C",[16],7.01%
same,"viability, T/C",[17],4.17%
same,"viability, T/C",[18],2.6%
same,"viability, T/C",[19],77.2%
same,"viability, T/C",[20],70.2%
same,"viability, T/C",[21],63.4%
same,"viability, T/C",[22],6.41%
same,"viability, T/C",[23],0.1%
same,"viability, T/C",[24],3.85%
same,"viability, T/C",[25],81.8%
same,"viability, T/C",[26],73.7%
same,"viability, T/C",[27],52.8%
same,"viability, T/C",[28],6.15%
same,"viability, T/C",[29],0.14%
same,"viability, T/C",[30],0.16%
Nc1ccccc1NC(=O)c1ccc(CNC(=O)OCc2cccnc2)cc1 + NC1CCC(NC2CC2c2ccccc2)CC1,IC50,second compound 0.1 µM,476 nM
same,IC50,second compound 0.316 µM,579 nM
same,IC50,second compound 1 µM,523 nM
same,IC50,second compound 3.16 µM,525 nM
same,IC50,second compound 10 µM,463 nM
same,"viability, T/C",[31],112%
same,"viability, T/C",[32],93.4%
same,"viability, T/C",[33],106%
same,"viability, T/C",[34],65.8%
same,"viability, T/C",[35],24%
same,"viability, T/C",[36],2.31%
same,"viability, T/C",[37],92.2%
same,"viability, T/C",[38],91.8%
same,"viability, T/C",[39],101%
same,"viability, T/C",[40],91.2%
same,"viability, T/C",[41],19.1%
same,"viability, T/C",[42],5.83%
same,"viability, T/C",[43],81.9%
same,"viability, T/C",[44],99.9%
same,"viability, T/C",[45],92%
same,"viability, T/C",[46],88.4%
same,"viability, T/C",[47],8.94%
same,"viability, T/C",[48],4.76%
same,"viability, T/C",[49],78.8%
same,"viability, T/C",[50],89.5%
same,"viability, T/C",[51],76.7%
same,"viability, T/C",[52],82.1%
same,"viability, T/C",[53],16.5%
same,"viability, T/C",[54],4.56%
same,"viability, T/C",[55],74.8%
same,"viability, T/C",[56],92.3%
same,"viability, T/C",[57],75.2%
same,"viability, T/C",[58],73.4%
same,"viability, T/C",[59],11.5%
same,"viability, T/C",[60],3.56%
O=C(C=Cc1cccc(S(=O)(=O)Nc2ccccc2)c1)NO + NC1CCC(NC2CC2c2ccccc2)CC1,IC50,second compound 0.1 µM,> 3000 nM
same,IC50,second compound 0.316 µM,> 3000 nM
same,IC50,second compound 1 µM,3000 nM
same,IC50,second compound 3.16 µM,> 3000 nM
same,IC50,second compound 10 µM,3000 nM
same,"viability, T/C",[31],105%
same,"viability, T/C",[32],115%
same,"viability, T/C",[33],122%
same,"viability, T/C",[34],134%
same,"viability, T/C",[35],51.9%
same,"viability, T/C",[36],110%
same,"viability, T/C",[37],101%
same,"viability, T/C",[38],108%
same,"viability, T/C",[39],128%
same,"viability, T/C",[40],120%
same,"viability, T/C",[41],47.7%
same,"viability, T/C",[42],106%
same,"viability, T/C",[43],81.3%
same,"viability, T/C",[44],105%
same,"viability, T/C",[45],108%
same,"viability, T/C",[46],109%
same,"viability, T/C",[47],44.7%
same,"viability, T/C",[48],78.8%
same,"viability, T/C",[49],101%
same,"viability, T/C",[50],101%
same,"viability, T/C",[51],102%
same,"viability, T/C",[52],116%
same,"viability, T/C",[53],38.5%
same,"viability, T/C",[54],89.3%
same,"viability, T/C",[55],79.2%
same,"viability, T/C",[56],85.5%
same,"viability, T/C",[57],78.8%
same,"viability, T/C",[58],117%
same,"viability, T/C",[59],32.9%
same,"viability, T/C",[60],76.3%
O=C(c1cc(Cc2n[nH]c(=O)c3ccccc23)ccc1F)N1CCN(C(=O)C2CC2)CC1 + NC1CCC(NC2CC2c2ccccc2)CC1,IC50,second compound 0.1 µM,> 10000 nM
same,IC50,second compound 0.316 µM,> 10000 nM
same,IC50,second compound 1 µM,> 10000 nM
same,IC50,second compound 3.16 µM,> 10000 nM
same,IC50,second compound 10 µM,> 10000 nM
same,"viability, T/C",[5],101%
same,"viability, T/C",[6],107%
same,"viability, T/C","second compound 0.1 µM, first compound 0.316 µM",102%
same,"viability, T/C","second compound 0.1 µM, first compound 1 µM",102%
same,"viability, T/C","second compound 0.1 µM, first compound 3.16 µM",91.7%
same,"viability, T/C","second compound 0.1 µM, first compound 10 µM",81.6%
same,"viability, T/C",[11],109%
same,"viability, T/C",[12],102%
same,"viability, T/C","second compound 0.316 µM, first compound 0.316 µM",90.5%
same,"viability, T/C","second compound 0.316 µM, first compound 1 µM",92.3%
same,"viability, T/C","second compound 0.316 µM, first compound 3.16 µM",85.6%
same,"viability, T/C","second compound 0.316 µM, first compound 10 µM",97.3%
same,"viability, T/C",[17],94.5%
same,"viability, T/C",[18],83.3%
same,"viability, T/C","second compound 1 µM, first compound 0.316 µM",71.1%
same,"viability, T/C","second compound 1 µM, first compound 1 µM",81.3%
same,"viability, T/C","second compound 1 µM, first compound 3.16 µM",86.1%
same,"viability, T/C","second compound 1 µM, first compound 10 µM",95%
same,"viability, T/C",[23],82.7%
same,"viability, T/C",[24],90.5%
same,"viability, T/C","second compound 3.16 µM, first compound 0.316 µM",84.8%
same,"viability, T/C","second compound 3.16 µM, first compound 1 µM",75.3%
same,"viability, T/C","second compound 3.16 µM, first compound 3.16 µM",87.1%
same,"viability, T/C","second compound 3.16 µM, first compound 10 µM",79.5%
same,"viability, T/C",[29],79.4%
same,"viability, T/C",[30],68.2%
same,"viability, T/C","second compound 10 µM, first compound 0.316 µM",67.8%
same,"viability, T/C","second compound 10 µM, first compound 1 µM",69.2%
same,"viability, T/C","second compound 10 µM, first compound 3.16 µM",79.6%
same,"viability, T/C","second compound 10 µM, first compound 10 µM",69%
